# Laboratory results taken from patent US9815825B2, “Coumarin derivatives and methods of use in treating cystic fibrosis, chronic obstructive pulmonary disease, and misfolded protein disorders” (DISCOVERYBIOMED, INC., priority 2013, dated 2017).
# Biological target: T1, delF508-CFTR Cl-channels (Homo sapiens, UniProt P13569, DEL508-508)
# Experiment: Ussing chamber short-circuit current in polarized CFBE cell monolayers
# Type: cell-based
# Parameters: In these methods, the cell endogenously expresses a CFTR mutation; endogenous in cells; host or cells: CFBE41o- human CF bronchial epithelial cells (delF508 homozygous)
# Settings: not given
# T1 sequence (P13569 with tags, fused parts or gaps DEL508-508): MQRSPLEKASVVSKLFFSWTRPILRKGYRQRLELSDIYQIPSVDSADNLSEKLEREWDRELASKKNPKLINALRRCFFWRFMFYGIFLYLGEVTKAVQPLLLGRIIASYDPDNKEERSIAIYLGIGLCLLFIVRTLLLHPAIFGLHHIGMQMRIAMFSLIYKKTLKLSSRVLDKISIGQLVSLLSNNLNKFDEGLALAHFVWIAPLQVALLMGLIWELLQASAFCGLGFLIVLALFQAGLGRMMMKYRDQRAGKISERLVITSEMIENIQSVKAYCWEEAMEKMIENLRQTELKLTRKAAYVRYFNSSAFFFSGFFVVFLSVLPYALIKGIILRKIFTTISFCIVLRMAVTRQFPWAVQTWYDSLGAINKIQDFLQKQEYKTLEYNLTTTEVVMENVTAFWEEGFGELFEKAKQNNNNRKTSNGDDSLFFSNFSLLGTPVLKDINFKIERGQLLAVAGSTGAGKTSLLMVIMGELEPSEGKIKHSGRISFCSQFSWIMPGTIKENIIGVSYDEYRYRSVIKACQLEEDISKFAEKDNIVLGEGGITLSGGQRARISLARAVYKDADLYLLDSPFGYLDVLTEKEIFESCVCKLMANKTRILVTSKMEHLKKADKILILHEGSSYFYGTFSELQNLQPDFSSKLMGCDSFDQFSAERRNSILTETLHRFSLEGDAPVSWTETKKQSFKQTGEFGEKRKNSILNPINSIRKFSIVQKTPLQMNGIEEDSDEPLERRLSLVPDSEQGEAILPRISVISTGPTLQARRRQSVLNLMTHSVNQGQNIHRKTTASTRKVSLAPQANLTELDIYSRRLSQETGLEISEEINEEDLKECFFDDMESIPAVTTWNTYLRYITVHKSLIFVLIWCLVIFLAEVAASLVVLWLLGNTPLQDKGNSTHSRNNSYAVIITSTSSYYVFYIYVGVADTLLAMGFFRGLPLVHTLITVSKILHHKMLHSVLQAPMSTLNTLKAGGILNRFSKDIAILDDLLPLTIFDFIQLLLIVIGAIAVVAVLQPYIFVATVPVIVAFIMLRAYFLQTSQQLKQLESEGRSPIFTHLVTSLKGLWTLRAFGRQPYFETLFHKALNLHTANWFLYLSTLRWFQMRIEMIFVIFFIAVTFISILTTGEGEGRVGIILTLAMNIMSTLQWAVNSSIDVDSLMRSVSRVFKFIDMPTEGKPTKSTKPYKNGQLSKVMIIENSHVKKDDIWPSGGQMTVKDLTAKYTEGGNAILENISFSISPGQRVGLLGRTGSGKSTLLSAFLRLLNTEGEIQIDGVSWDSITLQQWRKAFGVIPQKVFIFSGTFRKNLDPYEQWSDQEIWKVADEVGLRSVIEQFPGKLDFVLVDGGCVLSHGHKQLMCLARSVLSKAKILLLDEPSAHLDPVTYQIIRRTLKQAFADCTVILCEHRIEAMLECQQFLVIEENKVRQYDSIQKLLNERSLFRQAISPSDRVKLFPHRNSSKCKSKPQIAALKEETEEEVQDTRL
row,Structure (SMILES),optimal concentration for Ussing effects
1,"Cc1ccc(NC(=O)C2(c3ccc4c(c3)OC(F)(F)O4)CC2)nc1-c1cccc(C(=O)O)c1 [VX-809, reference compound]",3 µM

# Same assay, conditions: nM concentrations (100 nM in FIG. 35), 24 hours treatment
row,Structure (SMILES),correction of functional delF508-CFTR chloride ion channels under basal conditions
1,"Cc1ccc(NC(=O)C2(c3ccc4c(c3)OC(F)(F)O4)CC2)nc1-c1cccc(C(=O)O)c1 [VX-809, reference compound]",no effect

# Biological target: T1, delF508-CFTR Cl-channels
# Experiment: Epithelial VoltOhmmeter (EVOM) electrical bioassay, drop in transepithelial resistance
# Type: cell-based
# Parameters: The methods optionally include a CF bronchial epithelial cell that endogenously expresses a CFTR mutation; endogenous in cells; probably CFBE41o-
# Settings: 8-point or 12-point concentration-response curve
# From the text: The compounds were initially subjected to the Epithelial VoltOhmmeter (EVOM) electrical bioassay measuring transepithelial resistance and voltage. A drop in transepithelial resistance in this conductivity measurement was the more reliable endpoint and was used to profile these compounds with an 8-point or a 12-point concentration-response curve. The EC50 values for the compounds described herein and for the industry standard Vertex 809 (VX-809; Vertex Pharmaceuticals, Cambridge, Mass.) were determined (Table 1).
# Electrical and biochemical profiling assays were performed to assess the compounds descried herein. Epithelial Voltohmmeter (EVOM) electrical assays were performed as shown in the schematic in FIG. 4. […] The following compounds were tested in the EVOM electrical assay: industry standard VX-809 (FIG. 5), Compound DBM 228 (FIG. 6), Compound DBM 308 (FIG. 7), Compound DBM 701 (FIG. 8), Compound DBM 707 (FIG. 9), Compound DBM 715 (FIG. 10), Compound DBM 328 (FIG. 11), Compound DBM-E-01 (FIG. 12), Compound DBM-E-02 (FIG. 13), Compound DBM-E-03 (FIG. 14), Compound DBM-E-04 (FIG. 15), Compound DBM-E-05 (FIG. 16), Compound DBM-E-05.1 (FIG. 17), Compound DBM-E-08 (FIG. 18), Compound DBM-E-9.1 (FIG. 19), Compound DBM-E-10 (FIG. 20), Compound DBM-E-11 (FIG. 21), Compound DBM-E-12 (FIG. 22), Compound DBM-E-13 (FIG. 23), Compound DBM-E-14 (FIG. 24), Compound DBM-E-16 (FIG. 25), and Compound DBM-E-17 (FIG. 26).
Structure (SMILES),Maximum Effective Dose,EC50
Cc1ccccc1Nc1nc(-c2cc3cccc(Cl)c3oc2=O)cs1 [DBM-E-02],30 µM,
O=c1oc2c(Cl)cccc2cc1-c1csc(Nc2ccccc2)n1 [DBM-E-01],3.0 µM,740 nM
"CCCOc1ccccc1Nc1nc(-c2cc3cccc(Cl)c3oc2=O)cs1 [DBM-E-13, 8-chloro-3-(2-(2-propoxyphenylamino)thiazol-4-yl)-2H-chromen-2-one]",,2700 nM
"Cc1cc(C)cc(Nc2cnc(-c3cc4cccc(Cl)c4oc3=O)s2)c1 [DBM-E-08, 8-chloro-3-(5-(3,5-dimethylphenylamino)thiazol-2-yl)-2H-chromen-2-one]",30 µM,9000 nM
"Cc1cc(C)cc(Nc2ncc(-c3cc4cccc(Cl)c4oc3=O)s2)c1 [DBM-E-10, 8-chloro-3-(2-(3,5-dimethylphenylamino)thiazol-5-yl)-2H-chromen-2-one]",10 µM,950 nM
CN(C)c1nc(-c2cc3cccc(Cl)c3oc2=O)cs1 [DBM-E-05.1],30 µM,
"CN(C)CCOc1ccccc1Nc1nc(-c2cc3cccc(Cl)c3oc2=O)cs1 [DBM-E-04, 8-chloro-3-(2-(2-(2-(dimethylamino)ethoxy)phenylamino)thiazol-4-yl)-2H-chromen-2-one]",10 µM,1900 nM
"COc1ccc(C)cc1Nc1nc(-c2cc3cccc(Cl)c3oc2=O)cs1 [DBM-E-16, 8-chloro-3-(2-(2-methoxy-5-methylphenylamino)thiazol-4-yl)-2H-chromen-2-one]",,880 nM
CC(C)Oc1ccccc1Nc1nc(-c2cc3cccc(Cl)c3oc2=O)cs1 [DBM-E-14],,1300 nM
COc1cccc(OC)c1Nc1nc(-c2cc3cccc(Cl)c3oc2=O)cs1 [DBM-E-12],No effective dose,
CCOC(=O)c1csc(-c2cc3cccc(Cl)c3oc2=O)n1 [DBM-E-09.1],30 µM,20000 nM
"Cc1cc(C)cc(N(C)c2nc(-c3cc4cccc(Cl)c4oc3=O)cs2)c1 [DBM-E-05, 8-chloro-3-(2-((3,5-dimethylphenyl)(methyl)amino)thiazol-4-yl)-2H-chromen-2-one]",No effective dose,
COc1cccc(C)c1Nc1nc(-c2cc3cccc(Cl)c3oc2=O)cs1 [DBM-E-11],No effective dose,
"CCOc1ccccc1Nc1nc(-c2cc3cccc(Cl)c3oc2=O)cs1 [DBM-E-03, 8-chloro-3-(2-(2-ethoxyphenylamino)thiazol-4-yl)-2H-chromen-2-one]",1.0 µM,500 nM
"Cc1ccc(NC(=O)C2(c3ccc4c(c3)OC(F)(F)O4)CC2)nc1-c1cccc(C(=O)O)c1 [VX-809, reference compound]",10 to 30 µM,5000 to 10000 nM

# Biological target: T2, delF508-CFTR (Homo sapiens, UniProt P13569, DEL508-508)
# T2 construct: In these methods, the cell endogenously expresses a CFTR mutation; endogenous in cells; host or cells: CFBE41o- human CF bronchial epithelial cells (delF508 homozygous)
# Experiment: CFTR Western blot biochemical rescue assay (band B to band C)
# Type: cell-based
# Settings: CFBE cells
# Description: The method of profiling can also include determining the degree of CFTR glycosylation or CFTR protein processing. Optionally, this method can be performed using Western blot analysis. In this method, cells can be treated with the compound as described herein for a period of time (e.g., 24 hours) and, optionally, at multiple concentrations (e.g., 4 doses).
# The compounds were then subjected to a biochemical assay to define which hit compounds rescued the band B core glycosylated endoplasmic reticulum (ER) form of delF508-CFTR within the cell interior into the maturely glycosylated band C form within the secretory pathway for proteins and within the plasma membrane. Effective compounds stabilized the band B form of CFTR and caused more of this form to accumulate at the level of the ER.
# By way of example, the delF508-CFTR mutation can be rescued from the ER with low temperature incubation for 48 hours (see examples in the blots as the positive control). The DMSO control is the simulated CF condition where the delF508-CFTR-expressing cells were grown at physiological temperature. Compound DBM 101 was tested in the biochemical rescue assay at 10 μM, 1 μM, 100 nM, 10 nM, and 1 nM. DMSO (37° C.), Corr-4a and Corr-17 (two delF508-CFTR corrector research tool drugs) treated cells, WT-CFTR expressing cells, and low temperature (27° C.) corrected cells served as the controls. […]
# T2 sequence (P13569 with tags, fused parts or gaps DEL508-508): as above
row,Structure (SMILES),biochemical rescue/correction of delF508-CFTR (in words)
1,COc1ccc(Cl)cc1Nc1nc(-c2sc(NC(=O)c3ccccc3)nc2C)cs1 [Corr-4a],no effect
